Results taken from patent US20220348981A1, “ASSAY OF ARYLSULFATASE A ENZYMATIC ACTIVITY IN DRIED BLOOD SPOTS BY MASS SPECTROMETRY AND FLUOROMETRY” (University of Washington, priority 2019, published 2022).

Columns and labels:
arylsulfatase A (ARSA) [1] = molecular target: T1, arylsulfatase A (ARSA) (Homo sapiens, UniProt P15289); assay: ARSA assay with a 3 mm DBS punch, no purification; type: biochemical; details: 5 mM added to the assay buffer; data not shown
T1 construct: the assay is able to detect ARSA enzymatic activity in lysates of mixed leukocytes (mainly lymphocytes) by LC-MS/MS; endogenous in cells; host or cells: mixed leukocytes (mainly lymphocytes) prepared from K2EDTA venous blood; lysate, 2 µg protein per assay
T1 sequence (P15289 19-507): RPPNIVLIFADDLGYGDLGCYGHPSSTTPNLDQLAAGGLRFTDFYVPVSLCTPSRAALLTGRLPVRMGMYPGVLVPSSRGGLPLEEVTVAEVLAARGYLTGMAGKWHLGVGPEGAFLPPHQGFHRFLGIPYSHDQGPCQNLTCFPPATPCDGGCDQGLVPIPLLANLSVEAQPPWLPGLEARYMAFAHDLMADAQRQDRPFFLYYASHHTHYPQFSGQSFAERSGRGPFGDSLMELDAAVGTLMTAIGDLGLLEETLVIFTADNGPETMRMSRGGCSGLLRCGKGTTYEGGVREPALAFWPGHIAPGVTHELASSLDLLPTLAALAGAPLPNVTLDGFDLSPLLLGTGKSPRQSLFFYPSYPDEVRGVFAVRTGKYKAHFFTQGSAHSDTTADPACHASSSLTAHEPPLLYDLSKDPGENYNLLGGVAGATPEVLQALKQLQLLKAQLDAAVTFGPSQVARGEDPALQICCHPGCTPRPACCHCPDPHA
Description: Application of ARSA assay to DBS extracts purified by immune-precipitation. Initial attempts to detect ARSA enzymatic activity in DBS were unsuccessful. When the leukocyte lysate was substituted with a 3 mm DBS punch in the ARSA assay, no ARSA activity could be detected. Moreover, no ARSA activity was observed when leukocyte lysate was co-incubated with a DBS punch, whereas activity was seen when the leukocyte was incubated with a filter paper punch lacking blood matrix (data not shown). This indicated the presence of some ARSA inhibitor(s) in whole blood.

arylsulfatase A (ARSA) [2] = molecular target: T1, arylsulfatase A (ARSA); assay: ARSA leukocyte assay by LC-MS/MS with deuterated sulfatide substrate; type: biochemical; details: for effect on ARSA activity: additive in assay buffer, increasing amount (Ce(acetate)3 0 to 20 mM)
Description: Development of a new ARSA leukocyte assay. Recently, Han et al. reported the detection of ARSA enzymatic activity where a natural substrate, C18:0-sulfatide, was incubated with leukocyte lysate in buffer containing sodium taurodeoxycholate as detergent (Han, M.; Jun, S. H.; Song, S. H.; Park, H. D.; Park, K. U.; Song, J., Ultra-performance liquid chromatography-tandem mass spectrometry measurement of leukocyte arylsulfatase A activity using a natural substrate. Ann Lab Med 2015, 35 (1), 165-8). As described herein, in the present assay, the deuterium labeled sulfatide d3-C18:0-sulfatide was used as substrate so that the enzymatic product (d3-C18:0-galactosyl-ceramide) also carried the three deuterium labels, and could be selectively quantified without being interfered by the endogenous galactosyl-ceramide. Using this approach, the assay is able to detect ARSA enzymatic activity in lysates of mixed leukocytes (mainly lymphocytes) by LC-MS/MS. […] If leukocyte lysate was omitted, no discernable product peak was observed above the baseline noise (data not shown). […] Because detergent was present in the assay buffer, MLD patients that are due to dysfunctional Saposin B protein will not be detected with this assay, but these variants are very rare among MLD patients (less than 5%). In the Han et al. report, MnCl2 was added to the buffer at a concentration of 33 mM. […] Barium or cerium […] are often used to assay sulfatases in complex matrices to sequester inorganic sulfate and phosphate ions, which are potent inhibitors of sulfatases. […] The ARSA activity was pH dependent with an optimal pH at 4.5. […] The pH optimum of ARSA and the KM value found agreed with the previous reports. […]
Enzymatic activity calculation. ARSA activity in leukocyte (nmol/h/mg protein) was calculated by multiplying the ion ratio of ARSA product to ARSA internal standard (blank subtracted) by the nanomoles of internal standard added to the assay, then dividing by the incubation time (h) and the amount of leukocyte protein used (mg). […]

Molecule | rescue of ARSA activity in DBS (arylsulfatase A (ARSA) [1]) | effect on ARSA activity (arylsulfatase A (ARSA) [2]) | Km (arylsulfatase A (ARSA) [2]; leukocyte lysate, substrate concentration varied, hyperbolic kinetics, pH 4.5) [µM]
CC(=O)[O-].CC(=O)[O-].CC(=O)[O-].[Ce+3] [Ce(acetate)3] | did not rescue ARSA activity | decrease | 
[Cl][Mn][Cl] [MnCl2] |  | decrease with increasing amount | 
CC(=O)[O-].CC(=O)[O-].[Pd+2] [Pd(Acetate)2] | did not rescue ARSA activity |  | 
d3-C18:0-sulfatide |  |  | 83
